Data: patent publication US10023591B2, “Heterocyclic derivatives and use thereof” (C&C RESEARCH LABORATORIES, priority 2014, dated 2018)

How the values were obtained:
STAT3 = STAT3 reporter gene assay (luciferase), LNCaP stable cell line pSTAT3-TA-luc, IL-6 stimulation; assay type: cell-based, human; conditions: Homo sapiens
Method in brief: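 LNCaP cells stably carrying pSTAT3-TA-luc were plated 24 h in 3% DCC-FBS medium, then given compound followed by IL-6 (10 ng/mL final) for 24 h at 37 °C. Luciferase was read from lysates, with CellTiter-Glo viability on a duplicate plate. Stimulated 0.1% DMSO wells served as uninhibited control.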

[1] = tested on: LNCaP prostate cancer cell line; test: Cell growth inhibition assay, LNCaP (CellTiter-Glo); assay type: cell-based; conditions: Homo sapiens; LNCaP, 10,000 cells/well, medium with 10 ng/mL IL-6, 96 hours
Method in brief: (§1)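 Cells seeded at 3,000 (DU-145), 5,000 (NCI-N87) or 10,000 (LNCaP, MDA-MB-468) per well, LNCaP in medium with 10 ng/mL IL-6. Serially diluted compound for 96 h at 37 °C (MDA-MB-468 in air, others 5% CO2); viability by CellTiter-Glo luminescence versus 0.1% DMSO wells.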

[2] = tested on: DU-145 prostate cancer cell line; test: Cell growth inhibition assay, DU-145 (CellTiter-Glo); assay type: cell-based; conditions: Homo sapiens; DU-145, 3,000 cells/well, 96 hours
Method in brief: as §1

[3] = tested on: NCI-N87 stomach cancer cell line; test: Cell growth inhibition assay, NCI-N87 (CellTiter-Glo); assay type: cell-based; conditions: Homo sapiens; NCI-N87, 5,000 cells/well, 96 hours
Method in brief: as §1

STAT1 = STAT1 reporter gene assay (luciferase), U2OS stable cell line pGL4-STAT1-TA-luc, IFN-γ stimulation; assay type: cell-based, human; conditions: Homo sapiens, IFN-γ 50 ng/mL, 8 hours, read-out: IC50 (μM) pSTAT1
Method in brief: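 U2OS cells stably carrying a STAT1-driven luciferase reporter were treated with serially diluted compounds plus IFN-γ (50 ng/mL final) for 8 h at 37 °C in 10% FBS medium. Luciferase read after lysis; parallel plate assessed for cytotoxicity by CellTiter-Glo.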

[4] = tested on: MDA-MB-468 breast cancer cell line; test: Cell growth inhibition assay, MDA-MB-468 (CellTiter-Glo); assay type: cell-based; conditions: Homo sapiens, MDA-MB-468, 96 hours
Experimental: The inhibitory effects of the compounds of the present invention against the growth of cancer cells were evaluated as shown below. The cancer cell lines including prostate cancer cell lines (LNCaP, DU-145), stomach cancer cell line (NCI-N87), and breast cancer cell lines (MDA-MB-468) were cultured under the protocol provided by each supplier. A medium supplemented with 10 ng/mL of IL-6 was used for LNCaP, a prostate cancer cell line, when treated with a drug. Each type of cells to be used in experiments was sub-cultured in a 96-well plate by counting the exact number of cells using Tali™ Image-based Cytometer (Life Technologies). In a 96-well plate, DU-145 was employed with 3,000 cells/well; NCI-N87 was employed with 5,000 cells/well; and LNCaP and MDA-MB-468 were employed with 10,000 cells/well. The cells were treated with the compounds listed in Examples which were diluted in various concentrations. Upon completion of the compounds treatment, LNCaP, DU-145, NCI-N87 cells were cultured at 37° C. under 5% CO2 for 96 hours, and MDA-MB-468 cells were cultured at 37° C. in air for 96 hours. Subsequently, the cells were observed under microscope and drug precipitation and particular findings were investigated and recorded. And then, the 96-well plate was placed at room temperature for 30 minutes, added with 20 pt/well of CellTiter-Glo solution (Cat No. G7573, Promega) and shaken for 10 minutes, followed by being subjected to the measurement using PHERAstar™ microplate reader (BMG LABTECH) according to the supplier's general luminometer protocol. Wells where only culture liquid added without cell plating were used as a negative control, whereas wells where culture liquid containing 0.1% DMSO instead of the compounds listed in Examples were used as a positive control.

Compound `CC(C)(c1ccc2sc(C(=O)Nc3cc(Cl)nc(Oc4ccc(C(F)(F)F)cc4)c3)cc2c1)S(C)(=O)=O` [Example 67, N-(2-chloro-6-(4-(trifluoromethyl)phenoxy)pyridin-4-yl)-5-(2-(methylsulfonyl)propan-2-yl)benzo[b]thiophene-2-carboxamide] has an IC50 (STAT3) of 0.0084 µM, an IC50 [1] of 0.047 µM and an IC50 [2] of 0.0053 µM. The IC50 [3] was 0.021 µM and the IC50 (STAT1) was > 50 µM.

`CC(C)(c1ccc2sc(C(=O)Nc3cc(Cl)nc(Oc4ccc(Cl)c(Cl)c4)c3)cc2c1)S(C)(=O)=O` [Example 82, N-(2-chloro-6-(3,4-dichlorophenoxy)pyridin-4-yl)-5-(2-(methylsulfonyl)propan-2-yl)benzo[b]thiophene-2-carboxamide] was tested, and the IC50 (STAT3) was 0.0058 µM, the IC50 [3] was 0.035 µM and the IC50 (STAT1) was > 50 µM. It also gave an IC50 [4] of 0.0041 µM.

With `CC(C)(c1ccc2sc(C(=O)Nc3cc(Cl)nc(Oc4ccc(F)c(Cl)c4)c3)cc2c1)S(C)(=O)=O` [Example 71, N-(2-chloro-6-(3-chloro-4-fluorophenoxy)pyridin-4-yl)-5-(2-(methylsulfonyl)propan-2-yl)benzo[b]thiophene-2-carboxamide] the IC50 (STAT3) was 0.011 µM, the IC50 [3] was 0.02 µM and the IC50 (STAT1) was > 50 µM. The IC50 [4] was 0.0056 µM.

In the case of `Cc1onc(Oc2cc(NC(=O)c3cc4cc(C(C)(C)S(C)(=O)=O)ccc4s3)cc(Cl)n2)c1C` [Example 116, N-(2-chloro-6-((4,5-dimethylisoxazol-3-yl)oxy)pyridin-4-yl)-5-(2-(methylsulfonyl)propan-2-yl)benzo[b]thiophene-2-carboxamide], the IC50 (STAT3) is reported as 0.2 µM, the IC50 [3] is reported as 0.91 µM and the IC50 (STAT1) is reported as > 50 µM. For the same compound, the IC50 [4] was 0.062 µM.

In the case of `Cc1csc(Oc2cc(NC(=O)c3cc4cc(C(C)(C)S(C)(=O)=O)ccc4s3)cc(Cl)n2)n1` [Example 119, N-(2-chloro-6-((4-methylthiazol-2-yl)oxy)pyridin-4-yl)-5-(2-(methylsulfonyl)propan-2-yl)benzo[b]thiophene-2-carboxamide], the IC50 (STAT3) is reported as 2.8 µM, the IC50 [3] is reported as 7.8 µM and the IC50 (STAT1) is reported as 12.8 µM. The IC50 [4] was > 0.1 µM.

`CC(C)(c1ccc2sc(C(=O)Nc3cc(Cl)nc(Oc4ccc(OC(F)(F)F)cc4)c3)cc2c1)S(C)(=O)=O` [Example 84, N-(2-chloro-6-(4-(trifluoromethoxy)phenoxy)pyridin-4-yl)-5-(2-(methylsulfonyl)propan-2-yl)benzo[b]thiophene-2-carboxamide] was tested, and the IC50 (STAT3) was 0.0065 µM, the IC50 [3] was 0.02 µM and the IC50 (STAT1) was > 50 µM. The IC50 [4] was 0.0026 µM.

`CC(C)(c1ccc2sc(C(=O)Nc3cc(Cl)nc(Oc4csc(C(F)(F)F)c4)c3)cc2c1)S(C)(=O)=O` [Example 117, N-(2-chloro-6-((5-(trifluoromethyl)thiophen-3-yl)oxy)pyridin-4-yl)-5-(2-(methylsulfonyl)propan-2-yl)benzo[b]thiophene-2-carboxamide] was tested, and the IC50 (STAT3) was 0.028 µM, the IC50 [3] was 0.037 µM and the IC50 (STAT1) was > 50 µM. For the same compound, the IC50 [4] was 0.0053 µM.

`CC(C)(c1ccc2sc(C(=O)Nc3cc(Cl)nc(Oc4ccc(Cl)c(F)c4)c3)cc2c1)S(C)(=O)=O` [Example 72, N-(2-chloro-6-(4-chloro-3-fluorophenoxy)pyridin-4-yl)-5-(2-(methylsulfonyl)propan-2-yl)benzo[b]thiophene-2-carboxamide] was tested, and the IC50 (STAT3) was 0.01 µM, the IC50 [3] was 0.021 µM and the IC50 (STAT1) was > 50 µM. For the same compound, the IC50 [4] was 0.004 µM.

In the case of `Cc1cnc(Oc2cc(NC(=O)c3cc4cc(C(C)(C)S(C)(=O)=O)ccc4s3)cc(Cl)n2)s1` [Example 109, N-(2-chloro-6-((5-methylthiazol-2-yl)oxy)pyridin-4-yl)-5-(2-(methylsulfonyl)propan-2-yl)benzo[b]thiophene-2-carboxamide], the IC50 (STAT3) is reported as 0.46 µM, the IC50 [3] is reported as 1.7 µM and the IC50 (STAT1) is reported as > 50 µM. For the same compound, the IC50 [4] was 0.068 µM.

Compound `Cc1ccc(Oc2cc(NC(=O)c3cc4cc(C(C)(C)S(C)(=O)=O)ccc4s3)cc(Cl)n2)s1` [Example 120, N-(2-chloro-6-((5-methylthiophen-2-yl)oxy)pyridin-4-yl)-5-(2-(methylsulfonyl)propan-2-yl)benzo[b]thiophene-2-carboxamide] has an IC50 (STAT3) of 0.078 µM, an IC50 [3] of 0.12 µM and an IC50 (STAT1) of 39.6 µM. It also gave an IC50 [4] of 0.026 µM.

For `CC(C)(c1ccc2sc(C(=O)Nc3cc(Cl)nc(Oc4ccc(F)c(F)c4)c3)cc2c1)S(C)(=O)=O` [Example 79, N-(2-chloro-6-(3,4-difluorophenoxy)pyridin-4-yl)-5-(2-(methylsulfonyl)propan-2-yl)benzo[b]thiophene-2-carboxamide], the IC50 (STAT3) was 0.041 µM, the IC50 [3] was 0.043 µM and the IC50 (STAT1) was > 50 µM. The IC50 [4] was 0.0074 µM.

For `CC(C)(c1ccc2sc(C(=O)Nc3cc(Cl)nc(Oc4ccc(Cl)cc4F)c3)cc2c1)S(C)(=O)=O` [Example 83, N-(2-chloro-6-(4-chloro-2-fluorophenoxy)pyridin-4-yl)-5-(2-(methylsulfonyl)propan-2-yl)benzo[b]thiophene-2-carboxamide], the IC50 (STAT3) was 0.0082 µM, the IC50 [3] was 0.02 µM and the IC50 (STAT1) was > 50 µM. For the same compound, the IC50 [4] was 0.0052 µM.

For `CC(C)(c1ccc2sc(C(=O)Nc3cc(Cl)nc(Oc4cccc(Cl)c4)c3)cc2c1)S(C)(=O)=O` [Example 80, N-(2-chloro-6-(3-chlorophenoxy)pyridin-4-yl)-5-(2-(methylsulfonyl)propan-2-yl)benzo[b]thiophene-2-carboxamide], the IC50 (STAT3) was 0.04 µM, the IC50 [3] was 0.069 µM and the IC50 (STAT1) was > 50 µM. It also gave an IC50 [4] of 0.0084 µM.

With `CC(C)(c1ccc2sc(C(=O)Nc3cc(Cl)cc(Oc4cc(F)cc(Cl)c4)c3)cc2c1)S(C)(=O)=O` [Example 47, N-(3-chloro-5-(3-chloro-5-fluorophenoxy)phenyl)-5-(2-(methylsulfonyl)propan-2-yl)benzo[b]thiophene-2-carboxamide] the IC50 (STAT3) was 0.022 µM, the IC50 [1] was 0.02 µM and the IC50 [2] was 0.016 µM. The IC50 (STAT1) was > 50 µM.

In the case of `CC(C)(c1ccc(F)cc1)c1cc(Cl)cc(NC(=O)c2cc3cc(C(C)(C)S(C)(=O)=O)c(F)cc3s2)c1` [Example 19, N-(3-chloro-5-(2-(4-fluorophenyl)propan-2-yl)phenyl)-6-fluoro-5-(2-(methylsulfonyl)propan-2-yl)benzo[b]thiophene-2-carboxamide], the IC50 (STAT3) is reported as 0.029 µM, the IC50 [1] is reported as 0.043 µM and the IC50 [2] is reported as 0.022 µM. For the same compound, the IC50 (STAT1) was > 50 µM.

`CC(C)(c1ccc(Cl)cc1)c1cc(Cl)cc(NC(=O)c2cc3cc(CS(C)(=O)=O)ccc3s2)c1` [Example 21, N-(3-chloro-5-(2-(4-chlorophenyl)propan-2-yl)phenyl)-5-((methylsulfonyl)methyl)benzo[b]thiophene-2-carboxamide] was tested, and the IC50 (STAT3) was 0.11 µM, the IC50 [1] was 0.04 µM and the IC50 [2] was 0.017 µM. For the same compound, the IC50 (STAT1) was > 50 µM.

For `CN(c1cc(Cl)cc(NC(=O)c2cc3cc(C(C)(C)S(C)(=O)=O)ccc3s2)c1)c1ccc(F)cc1F` [Example 98, N-(3-chloro-5-((2,4-difluorophenyl)(methyl)amino)phenyl)-5-(2-(methylsulfonyl)propan-2-yl)benzo[b]thiophene-2-carboxamide], the IC50 (STAT3) was 0.031 µM, the IC50 [1] was 0.031 µM and the IC50 [2] was 0.0066 µM. The IC50 (STAT1) was > 50 µM.

`CN(c1ccc(Cl)cc1)c1cc(NC(=O)c2cc3cc(C(C)(C)S(C)(=O)=O)ccc3s2)cc(Cl)n1` [Example 100, N-(2-chloro-6-((4-chlorophenyl)(methyl)amino)pyridin-4-yl)-5-(2-(methylsulfonyl)propan-2-yl)benzo[b]thiophene-2-carboxamide] gave an IC50 (STAT3) of 0.07 µM, an IC50 [1] of 0.14 µM and an IC50 [2] of 0.026 µM. For the same compound, the IC50 (STAT1) was > 50 µM.

For `CS(=O)(=O)Cc1ccc2sc(C(=O)Nc3cc(Cl)cc(Oc4ccc(Cl)cc4)c3)cc2c1` [Example 41, N-(3-chloro-5-(4-chlorophenoxy)phenyl)-5-((methylsulfonyl)methyl)benzo[b]thiophene-2-carboxamide], the IC50 (STAT3) was 0.16 µM, the IC50 [1] was 0.12 µM and the IC50 [2] was 0.063 µM. For the same compound, the IC50 (STAT1) was > 50 µM.
